Measurements: patent US7786141B2 (Vertex Pharmaceuticals Incorporated, priority 2004, dated 2010)

Tests used:
M1 muscarinic receptor = molecular target: T1, M1 muscarinic receptor (Homo sapiens, UniProt P11229); experiment: Functional mobilization of intracellular calcium (FLIPR) in M1-CHO cells; type: cell-based; conditions: Table 4; for Emax: 100% efficacy is the maximum response obtained with the Carbachol control; for M1 Activity: modulating M1 receptor
T1 construct: expressed in transfected cells; host or cells: CHO (M1-CHO)
T1 sequence (P11229 1-460): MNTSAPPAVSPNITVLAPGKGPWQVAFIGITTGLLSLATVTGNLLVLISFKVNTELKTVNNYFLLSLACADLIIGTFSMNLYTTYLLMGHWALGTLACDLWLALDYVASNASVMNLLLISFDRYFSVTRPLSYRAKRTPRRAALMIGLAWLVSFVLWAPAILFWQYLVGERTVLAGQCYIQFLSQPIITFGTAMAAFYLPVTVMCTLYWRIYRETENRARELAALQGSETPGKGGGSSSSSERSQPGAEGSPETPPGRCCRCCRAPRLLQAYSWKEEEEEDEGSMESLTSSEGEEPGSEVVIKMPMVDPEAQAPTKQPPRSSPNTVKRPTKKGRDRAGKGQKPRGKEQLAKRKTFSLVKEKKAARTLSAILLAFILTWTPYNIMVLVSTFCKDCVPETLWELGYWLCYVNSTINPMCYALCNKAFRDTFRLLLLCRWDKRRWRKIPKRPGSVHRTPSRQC
Summary of the method: (§1)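 Measured via Fluo-3 fluorescence on a FLIPR, CHO cells with either muscarinic subtype received compound in 0.5% DMSO. Antagonism was assessed after 15 min pre-incubation followed by carbachol at each subtype's EC80; agonism from compound addition alone.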

M4 muscarinic receptor = molecular target: T2, M4 muscarinic receptor (Homo sapiens, UniProt P08173); experiment: Functional mobilization of intracellular calcium (FLIPR) in M4-CHO cells; type: cell-based; conditions: Table 4; for Emax: 100% efficacy is the maximum response obtained with the Carbachol control; for M4 Activity: modulating M4 receptor
T2 construct: expressed in transfected cells; host or cells: CHO (M4-CHO)
T2 sequence (P08173 1-479): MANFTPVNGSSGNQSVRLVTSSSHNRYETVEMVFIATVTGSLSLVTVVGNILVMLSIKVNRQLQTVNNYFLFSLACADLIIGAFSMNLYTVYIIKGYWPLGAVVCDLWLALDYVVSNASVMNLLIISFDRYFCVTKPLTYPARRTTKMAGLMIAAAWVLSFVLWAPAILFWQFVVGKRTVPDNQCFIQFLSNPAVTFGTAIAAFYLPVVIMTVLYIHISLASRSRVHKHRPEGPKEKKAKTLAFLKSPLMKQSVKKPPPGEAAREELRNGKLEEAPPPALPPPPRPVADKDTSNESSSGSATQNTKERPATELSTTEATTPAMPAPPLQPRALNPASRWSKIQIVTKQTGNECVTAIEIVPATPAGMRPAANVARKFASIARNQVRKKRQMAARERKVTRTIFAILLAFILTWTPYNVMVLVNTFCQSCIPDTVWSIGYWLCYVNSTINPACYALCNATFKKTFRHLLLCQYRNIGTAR
Summary of the method: as §1

SMILES	Emax (M1 muscarinic receptor) [%]	M1 Activity (M1 muscarinic receptor)	Emax (M4 muscarinic receptor) [%]	M4 Activity (M4 muscarinic receptor)
CCOC(=O)N1CCC(CN2CCC3(CC2)CN(C(C)=O)c2ccc(C(C)C)cc23)CC1 [compound 555]	25 to 100	xxx (activity was measured to be less than 2.0 μM)	25 to 100	xx (activity was measured to be between 2.0 μM and 5.0 μM)
CC(=O)N1CC2(CCN(C3CCN(c4cncc(-c5ccc(F)cc5)n4)CC3)CC2)c2ccccc21 [compound 556]	25 to 100	x (activity was measured to be greater than 5.0 μM)	< 25	x (activity was measured to be greater than 5.0 μM)
CC(C)OC(=O)N1CC[C@@H](CN2CCC3(CC2)CN(C(=O)N(C)C)c2ccc(F)cc23)C1 [compound 558]	25 to 100	xxx (activity was measured to be less than 2.0 μM)	25 to 100	xxx (activity was measured to be less than 2.0 μM)
CCOC(=O)N1CCC(N2CCC3(CC2)CN(C(C)=O)c2c(-c4ccoc4)cccc23)CC1 [compound 559]	25 to 100	xxx (activity was measured to be less than 2.0 μM)	25 to 100	x (activity was measured to be greater than 5.0 μM)
CCOC(=O)N1CCC(N2CCC3(CC2)CN(C(C)=O)c2cccc(OC)c23)CC1 [compound 560]	25 to 100	xxx (activity was measured to be less than 2.0 μM)	< 25	x (activity was measured to be greater than 5.0 μM)
CN(C)C(=O)N1CC2(CCN(C3CCN(c4ccsc4)CC3)CC2)c2cc(F)ccc21 [compound 561]	25 to 100	x (activity was measured to be greater than 5.0 μM)	25 to 100	xx (activity was measured to be between 2.0 μM and 5.0 μM)
C#Cc1ccc2c(c1)C1(CCN(C3CCN(C(=O)OCC)CC3)CC1)CN2C(C)=O [compound 563]	> 100	xxx (activity was measured to be less than 2.0 μM)	25 to 100	xxx (activity was measured to be less than 2.0 μM)
C#CCOC(=O)N1CC[C@@H](CN2CCC3(CC2)CN(C(C)=O)c2cccc(C)c23)C1 [compound 564]	25 to 100	xxx (activity was measured to be less than 2.0 μM)	25 to 100	xxx (activity was measured to be less than 2.0 μM)
C#CCCOC(=O)N1CCC(N2CCC3(CC2)CN(CCOC)c2ccc(F)cc23)CC1 [compound 565]	25 to 100	xxx (activity was measured to be less than 2.0 μM)	25 to 100	xxx (activity was measured to be less than 2.0 μM)
COc1cc2c(cc1OC)C1(CCN(C3CC(C)(C)CC(C)(C)C3)CC1)CC2NC(C)=O (stereo not shown) [compound 566]	< 25	x (activity was measured to be greater than 5.0 μM)	< 25	x (activity was measured to be greater than 5.0 μM)
CCOC(=O)N1CCC(N2CCC3(CC2)CN(c2ncccn2)c2ccc(F)cc23)CC1 [compound 567]	25 to 100	xxx (activity was measured to be less than 2.0 μM)	25 to 100	xxx (activity was measured to be less than 2.0 μM)
CC(=O)N[C@H]1CCC2(CCN(CCC3CCCCC3)CC2)c2ccccc21 [compound 568]	25 to 100	xxx (activity was measured to be less than 2.0 μM)	< 25	xxx (activity was measured to be less than 2.0 μM)
COc1ccc([C@@H](C)N[C@H]2CC3(CCN(CC4CC5C=CC4C5)CC3)c3cc(Cl)ccc32)cc1 (stereo partly shown) [compound 569]	25 to 100	xx (activity was measured to be between 2.0 μM and 5.0 μM)	25 to 100	xx (activity was measured to be between 2.0 μM and 5.0 μM)
CN(C)C(=O)N1CC2(CCN(C[C@@H]3CCN(c4nccs4)C3)CC2)c2cc(F)ccc21 [compound 570]	25 to 100	xx (activity was measured to be between 2.0 μM and 5.0 μM)	25 to 100	xxx (activity was measured to be less than 2.0 μM)
COCCN1CC2(CCN(C3CCN(C(=O)OC(C)C)CC3)CC2)c2cc(F)ccc21 [compound 571]	25 to 100	xxx (activity was measured to be less than 2.0 μM)	25 to 100	xxx (activity was measured to be less than 2.0 μM)
Cc1noc(C)c1C(=O)N1CCC(N2CCC3(CC2)CN(C(=O)N(C)C)c2ccc(F)cc23)CC1 [compound 572]	25 to 100	xx (activity was measured to be between 2.0 μM and 5.0 μM)	< 25	x (activity was measured to be greater than 5.0 μM)
C#CCOC(=O)N1CC[C@H](CN2CCC3(CC2)CN(C(C)=O)c2cccc(C)c23)C1 [compound 573]	25 to 100	xxx (activity was measured to be less than 2.0 μM)	25 to 100	xxx (activity was measured to be less than 2.0 μM)
C#CC(=O)N1CCC(N2CCC3(CC2)CN(C(=O)N(C)C)c2ccc(F)cc23)CC1 [compound 574]	25 to 100	xx (activity was measured to be between 2.0 μM and 5.0 μM)	25 to 100	xxx (activity was measured to be less than 2.0 μM)
CC(=O)N[C@H]1CCC2(CCN(CCC3CCN(C(=O)OC(C)(C)C)CC3)CC2)c2ccccc21 [compound 575]	< 25	x (activity was measured to be greater than 5.0 μM)	< 25	x (activity was measured to be greater than 5.0 μM)
O=C(N[C@H]1CCC2(CCN(CC3CC4C=CC3C4)CC2)c2ccccc21)C1CC1 (stereo partly shown) [compound 576]	25 to 100	xxx (activity was measured to be less than 2.0 μM)	25 to 100	xxx (activity was measured to be less than 2.0 μM)
CC(=O)N1CC2(CCN(CC3CC3)CC2)c2cc(F)ccc21 [compound 577]	< 25	x (activity was measured to be greater than 5.0 μM)	< 25	x (activity was measured to be greater than 5.0 μM)
CCC#CCOC(=O)N1CC[C@H](CN2CCC3(CC2)CN(C(C)=O)c2ccccc23)C1 [compound 578]	25 to 100	xxx (activity was measured to be less than 2.0 μM)	25 to 100	xxx (activity was measured to be less than 2.0 μM)
CCOC(=O)N1CCC(N2CCC3(CC2)CN(C(C)=O)c2c(F)cc(F)cc23)CC1 [compound 579]	25 to 100	xxx (activity was measured to be less than 2.0 μM)	25 to 100	xxx (activity was measured to be less than 2.0 μM)
CCOC(=O)N1C2CCC1CC(N1CCC3(CC1)CN(C(C)=O)c1ccc(S(C)(=O)=O)cc13)C2 (stereo not shown) [compound 580]	25 to 100	xxx (activity was measured to be less than 2.0 μM)	25 to 100	x (activity was measured to be greater than 5.0 μM)
CC(=O)N[C@H]1CCC2(CCN(CCC3CC4CCC3C4)CC2)c2ccccc21 (stereo partly shown) [compound 581]	25 to 100	xxx (activity was measured to be less than 2.0 μM)	< 25	xxx (activity was measured to be less than 2.0 μM)
CCOC(=O)N1C2CCC1CC(N1CCC3(CC1)CN(C(C)=O)c1ccc(C(F)(F)F)cc13)C2 (stereo not shown) [compound 583]	25 to 100	xxx (activity was measured to be less than 2.0 μM)	25 to 100	xxx (activity was measured to be less than 2.0 μM)
CN(C)C(=O)N1CC2(CCN(C[C@@H]3CCN(C(=O)OCC4CC4)C3)CC2)c2cc(F)ccc21 [compound 584]	25 to 100	xxx (activity was measured to be less than 2.0 μM)	25 to 100	xxx (activity was measured to be less than 2.0 μM)
CCOC(=O)N1CCC(N2CCC3(CC2)CN(c2ccccn2)c2ccc(F)cc23)CC1 [compound 585]	25 to 100	xxx (activity was measured to be less than 2.0 μM)	25 to 100	xxx (activity was measured to be less than 2.0 μM)
